Laboratory results: ChEMBL document CHEMBL3734689, “Enzyme kinetics and inhibition of histone acetyltransferase KAT8” (Eur J Med Chem, 2015)

biological target: T1, Histone acetyltransferase KAT8 (Homo sapiens, UniProt Q9H7Z6); assay: Inhibition of recombinant N-terminal His6-tagged KAT8 (unknown origin) expressed in Escherichia Coli BL21 DE3 cells assessed as reduction of Co A level using histone H4 substrate after 15 mins by CPM fluorescence assay
T1 sequence (Q9H7Z6 whole entry): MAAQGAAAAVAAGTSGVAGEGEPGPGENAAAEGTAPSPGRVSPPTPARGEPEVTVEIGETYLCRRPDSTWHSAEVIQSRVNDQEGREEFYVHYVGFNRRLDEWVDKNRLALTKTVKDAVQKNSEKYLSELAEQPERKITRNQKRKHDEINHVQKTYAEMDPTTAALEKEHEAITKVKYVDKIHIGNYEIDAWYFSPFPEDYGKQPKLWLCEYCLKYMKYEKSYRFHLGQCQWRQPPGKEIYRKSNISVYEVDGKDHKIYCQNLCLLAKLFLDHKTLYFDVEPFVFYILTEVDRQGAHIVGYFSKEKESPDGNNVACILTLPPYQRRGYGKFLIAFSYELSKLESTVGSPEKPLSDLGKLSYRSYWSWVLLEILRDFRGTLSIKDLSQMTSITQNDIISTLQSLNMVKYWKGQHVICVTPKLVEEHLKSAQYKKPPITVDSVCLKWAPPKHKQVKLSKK

Ki	Compound
157 µM	O=C(O)c1c(O)cccc1CCCCCCCCCCCO
79 µM	CCCCCCCCCCCCCCCc1ccc(O)c(C(=O)O)c1
57 µM	CCCCCCCCCCc1ccc(O)c(C(=O)O)c1
37 µM	CCCCCCCCCCc1cccc(O)c1C(=O)O
